The OligoGym collection
Several values for one entry are separate records, joined by “and”; a condition that tells them apart may be missing. Identical values can stand only once. HELM strings list units from the 5' end as sugar, base in round brackets, then linkage (d deoxyribose, r ribose, m 2'-O-methyl, p phosphodiester). Strings are as the collection lists them, not checked against the first reports. ss, as = sense and antisense strand; [fl2r] = 2'-fluoro

settings: siRNA
Note: test system not given here.

Substance	target mRNA knockdown
RNA1{r(A)p.r(A)p.r(A)p.r(G)p.r(G)p.r(G)p.r(G)p.r(A)p.r(G)p.r(U)p.m(U)p.r(G)p.r(C)p.m(U)p.r(G)p.r(G)p.r(A)p.r(A)p.r(G)p.r(T)p.r(T)}|RNA2{r(C)p.r(U)p.r(U)p.r(C)p.m(C)p.r(A)p.r(G)p.m(C)p.r(A)p.r(A)p.r(C)p.r(U)p.r(C)p.r(C)p.r(C)p.r(C)p.r(U)p.r(U)p.r(U)p.r(T)p.r(T)}$$$RNA1{StrandType:ss}|RNA2{StrandType:as}$	74%
RNA1{r(A)p.r(A)p.r(A)p.r(G)p.r(G)p.r(G)p.r(G)p.r(A)p.r(G)p.r(U)p.m(U)p.r(G)p.r(C)p.m(U)p.r(G)p.r(G)p.r(A)p.r(A)p.r(G)p.r(T)p.r(T)}|RNA2{r(C)p.r(U)p.r(U)p.r(C)p.m(C)p.r(A)p.r(G)p.r(C)p.r(A)p.r(A)p.r(C)p.r(U)p.r(C)p.r(C)p.r(C)p.r(C)p.r(U)p.r(U)p.r(U)p.r(T)p.r(T)}$$$RNA1{StrandType:ss}|RNA2{StrandType:as}$	76%
RNA1{r(A)p.r(A)p.r(C)p.r(A)p.r(G)p.r(C)p.r(C)p.r(U)p.r(U)p.r(A)p.r(C)p.r(C)p.r(C)p.r(C)p.r(G)p.r(A)p.r(U)p.r(U)p.r(C)p.r(T)p.r(T)}|RNA2{r(G)p.r(A)p.r(A)p.r(U)p.r(C)p.r(G)p.r(G)p.r(G)p.r(G)p.m(U)p.r(A)p.r(A)p.r(G)p.r(G)p.r(C)p.r(U)p.r(G)p.r(U)p.r(U)p.r(T)p.r(T)}$$$RNA1{StrandType:ss}|RNA2{StrandType:as}$	69%
RNA1{r(A)p.r(A)p.r(C)p.r(A)p.r(G)p.r(U)p.r(C)p.r(C)p.r(U)p.m(U)p.r(A)p.r(G)p.r(C)p.m(U)p.r(A)p.r(C)p.r(G)p.r(C)p.m(U)p.r(T)p.r(T)}|RNA2{r(A)p.r(G)p.r(C)p.r(G)p.m(U)p.r(A)p.r(G)p.r(C)p.r(U)p.r(A)p.r(A)p.r(G)p.r(G)p.r(A)p.r(C)p.r(U)p.r(G)p.r(U)p.r(U)p.r(T)p.r(T)}$$$RNA1{StrandType:ss}|RNA2{StrandType:as}$	82%
RNA1{r(A)p.r(A)p.r(C)p.r(C)p.[fl2r](C)p.r(A)p.r(C)p.r(C)p.r(A)p.[fl2r](C)p.r(A)p.r(G)p.r(C)p.[fl2r](U)p.r(A)p.r(G)p.r(A)p.r(A)p.r(C)p.r(U)p.r(U)}|RNA2{r(G)p.r(U)p.r(U)p.r(C)p.[fl2r](U)p.r(A)p.r(G)p.r(C)p.[fl2r](U)p.r(G)p.[fl2r](U)p.r(G)p.r(G)p.[fl2r](U)p.r(G)p.r(G)p.r(G)p.r(U)p.r(U)p.r(U)p.r(U)}$$$RNA1{StrandType:ss}|RNA2{StrandType:as}$	79%
RNA1{r(A)p.r(A)p.r(C)p.r(C)p.[fl2r](C)p.r(A)p.r(C)p.r(C)p.r(A)p.r(C)p.r(A)p.r(G)p.r(C)p.[fl2r](U)p.r(A)p.r(G)p.r(A)p.r(A)p.r(C)p.r(U)p.r(U)}|RNA2{r(G)p.r(U)p.r(U)p.r(C)p.[fl2r](U)p.[fl2r](A)p.r(G)p.r(C)p.[fl2r](U)p.r(G)p.r(U)p.r(G)p.r(G)p.r(U)p.r(G)p.r(G)p.r(G)p.r(U)p.r(U)p.r(U)p.r(U)}$$$RNA1{StrandType:ss}|RNA2{StrandType:as}$	86%
RNA1{r(A)p.r(A)p.r(C)p.r(C)p.m(C)p.r(A)p.r(A)p.r(A)p.r(G)p.r(G)p.r(G)p.m(G)p.r(A)p.r(G)p.r(U)p.m(U)p.r(G)p.r(C)p.r(U)p.r(T)p.r(T)}|RNA2{r(A)p.r(G)p.m(C)p.r(A)p.r(A)p.r(C)p.r(U)p.r(C)p.r(C)p.r(C)p.r(C)p.r(U)p.r(U)p.m(U)p.r(G)p.r(G)p.r(G)p.r(U)p.r(U)p.r(T)p.r(T)}$$$RNA1{StrandType:ss}|RNA2{StrandType:as}$	92%
RNA1{r(A)p.r(A)p.r(C)p.r(C)p.r(C)p.r(A)p.r(A)p.r(A)p.r(G)p.r(G)p.r(G)p.r(G)p.r(A)p.r(G)p.r(U)p.m(U)p.r(G)p.r(C)p.r(U)p.r(T)p.r(T)}|RNA2{r(A)p.r(G)p.r(C)p.r(A)p.r(A)p.r(C)p.r(U)p.r(C)p.r(C)p.r(C)p.r(C)p.r(U)p.r(U)p.m(U)p.r(G)p.r(G)p.r(G)p.r(U)p.r(U)p.r(T)p.r(T)}$$$RNA1{StrandType:ss}|RNA2{StrandType:as}$	83%
RNA1{r(A)p.r(A)p.r(C)p.r(C)p.r(C)p.r(A)p.r(C)p.r(C)p.r(A)p.r(C)p.r(A)p.[fl2r](G)p.r(C)p.[fl2r](U)p.[fl2r](A)p.[fl2r](G)p.r(A)p.r(A)p.r(C)p.r(U)p.r(U)}|RNA2{r(A)p.r(A)p.r(G)p.r(U)p.r(U)p.r(C)p.r(U)p.r(A)p.r(G)p.r(C)p.r(U)p.r(G)p.r(U)p.r(G)p.r(G)p.r(U)p.r(G)p.r(G)p.r(G)p.r(U)p.r(U)}$$$RNA1{StrandType:ss}|RNA2{StrandType:as}$	75%
RNA1{r(A)p.r(A)p.r(C)p.r(C)p.r(C)p.r(A)p.r(C)p.r(C)p.r(A)p.r(C)p.r(A)p.r(G)p.r(C)p.[fl2r](U)p.[fl2r](A)p.r(G)p.r(A)p.r(A)p.r(C)p.r(U)p.r(U)}|RNA2{r(A)p.r(A)p.r(G)p.r(U)p.r(U)p.r(C)p.[fl2r](U)p.[fl2r](A)p.r(G)p.r(C)p.r(U)p.r(G)p.r(U)p.r(G)p.r(G)p.r(U)p.r(G)p.r(G)p.r(G)p.r(U)p.r(U)}$$$RNA1{StrandType:ss}|RNA2{StrandType:as}$	57%
RNA1{r(A)p.r(A)p.r(C)p.r(C)p.r(C)p.r(A)p.r(C)p.r(C)p.r(A)p.r(C)p.r(A)p.r(G)p.r(C)p.m(U)p.m(A)p.r(G)p.r(A)p.r(A)p.r(C)p.m(U)p.m(U)}|RNA2{r(A)p.r(A)p.r(G)p.m(U)p.m(U)p.r(C)p.m(U)p.m(A)p.r(G)p.r(C)p.m(U)p.r(G)p.m(U)p.r(G)p.r(G)p.m(U)p.r(G)p.r(G)p.r(G)p.m(U)p.m(U)}$$$RNA1{StrandType:ss}|RNA2{StrandType:as}$	24%
RNA1{r(A)p.r(A)p.r(C)p.r(C)p.r(C)p.r(A)p.r(C)p.r(C)p.r(A)p.r(C)p.r(A)p.r(G)p.r(C)p.m(U)p.m(A)p.r(G)p.r(A)p.r(A)p.r(C)p.m(U)p.m(U)}|RNA2{r(A)p.r(A)p.r(G)p.r(U)p.r(U)p.r(C)p.m(U)p.m(A)p.r(G)p.r(C)p.r(U)p.r(G)p.r(U)p.r(G)p.r(G)p.r(U)p.r(G)p.r(G)p.r(G)p.r(U)p.r(U)}$$$RNA1{StrandType:ss}|RNA2{StrandType:as}$	51%
RNA1{r(A)p.r(A)p.r(C)p.r(C)p.r(C)p.r(A)p.r(C)p.r(C)p.r(A)p.r(C)p.r(A)p.r(G)p.r(C)p.m(U)p.m(A)p.r(G)p.r(A)p.r(A)p.r(C)p.r(U)p.r(U)}|RNA2{r(A)p.r(A)p.r(G)p.r(U)p.r(U)p.r(C)p.r(U)p.r(A)p.r(G)p.r(C)p.r(U)p.r(G)p.r(U)p.r(G)p.r(G)p.r(U)p.r(G)p.r(G)p.r(G)p.r(U)p.r(U)}$$$RNA1{StrandType:ss}|RNA2{StrandType:as}$	79%
RNA1{r(A)p.r(A)p.r(C)p.r(C)p.r(C)p.r(A)p.r(C)p.r(C)p.r(A)p.r(C)p.r(A)p.r(G)p.r(C)p.m(U)p.r(A)p.r(G)p.r(A)p.r(A)p.r(C)p.m(U)p.m(U)}|RNA2{r(A)p.r(A)p.r(G)p.r(U)p.r(U)p.r(C)p.m(U)p.r(A)p.r(G)p.r(C)p.r(U)p.r(G)p.r(U)p.r(G)p.r(G)p.r(U)p.r(G)p.r(G)p.r(G)p.r(U)p.r(U)}$$$RNA1{StrandType:ss}|RNA2{StrandType:as}$	81%
RNA1{r(A)p.r(A)p.r(C)p.r(C)p.r(C)p.r(A)p.r(C)p.r(C)p.r(A)p.r(C)p.r(A)p.r(G)p.r(C)p.m(U)p.r(A)p.r(G)p.r(A)p.r(A)p.r(C)p.m(U)p.m(U)}|RNA2{r(A)p.r(A)p.r(G)p.r(U)p.r(U)p.r(C)p.r(U)p.r(A)p.r(G)p.r(C)p.r(U)p.r(G)p.r(U)p.r(G)p.r(G)p.r(U)p.r(G)p.r(G)p.r(G)p.r(U)p.r(U)}$$$RNA1{StrandType:ss}|RNA2{StrandType:as}$	81%
RNA1{r(A)p.r(A)p.r(C)p.r(C)p.r(C)p.r(A)p.r(C)p.r(C)p.r(A)p.r(C)p.r(A)p.r(G)p.r(C)p.m(U)p.r(A)p.r(G)p.r(A)p.r(A)p.r(C)p.r(U)p.r(U)}|RNA2{r(A)p.r(A)p.r(G)p.r(U)p.r(U)p.r(C)p.r(U)p.r(A)p.r(G)p.r(C)p.r(U)p.r(G)p.r(U)p.r(G)p.r(G)p.r(U)p.r(G)p.r(G)p.r(G)p.r(U)p.r(U)}$$$RNA1{StrandType:ss}|RNA2{StrandType:as}$	84% and 82%
RNA1{r(A)p.r(A)p.r(C)p.r(C)p.r(C)p.r(A)p.r(C)p.r(C)p.r(A)p.r(C)p.r(A)p.r(G)p.r(C)p.r(U)p.r(A)p.r(G)p.r(A)p.r(A)p.r(C)p.r(U)p.r(U)}|RNA2{r(A)p.r(A)p.m(G)p.m(U)p.m(U)p.r(C)p.m(U)p.r(A)p.m(G)p.r(C)p.m(U)p.m(G)p.m(U)p.m(G)p.m(G)p.m(U)p.m(G)p.m(G)p.r(G)p.m(U)p.m(U)}$$$RNA1{StrandType:ss}|RNA2{StrandType:as}$	15%
RNA1{r(A)p.r(A)p.r(C)p.r(C)p.r(C)p.r(A)p.r(C)p.r(C)p.r(A)p.r(C)p.r(A)p.r(G)p.r(C)p.r(U)p.r(A)p.r(G)p.r(A)p.r(A)p.r(C)p.r(U)p.r(U)}|RNA2{r(A)p.r(A)p.r(G)p.[fl2r](U)p.[fl2r](U)p.r(C)p.[fl2r](U)p.r(A)p.r(G)p.r(C)p.r(U)p.r(G)p.[fl2r](U)p.r(G)p.r(G)p.[fl2r](U)p.r(G)p.r(G)p.r(G)p.[fl2r](U)p.[fl2r](U)}$$$RNA1{StrandType:ss}|RNA2{StrandType:as}$	14%
RNA1{r(A)p.r(A)p.r(C)p.r(U)p.r(C)p.[fl2r](U)p.r(A)p.r(C)p.[fl2r](U)p.r(G)p.[fl2r](U)p.r(G)p.r(G)p.r(A)p.r(G)p.r(U)p.r(C)p.r(G)p.r(G)p.r(T)p.r(T)}|RNA2{r(C)p.r(C)p.r(G)p.r(A)p.r(C)p.r(U)p.r(C)p.[fl2r](C)p.r(A)p.[fl2r](C)p.r(A)p.r(G)p.[fl2r](U)p.r(A)p.r(G)p.r(A)p.r(G)p.r(U)p.r(U)p.r(T)p.r(T)}$$$RNA1{StrandType:ss}|RNA2{StrandType:as}$	65%
RNA1{r(A)p.r(A)p.r(C)p.r(U)p.r(C)p.m(U)p.r(A)p.r(C)p.m(U)p.r(G)p.m(U)p.r(G)p.r(G)p.r(A)p.r(G)p.r(U)p.r(C)p.r(G)p.r(G)p.r(T)p.r(T)}|RNA2{r(C)p.r(C)p.r(G)p.r(A)p.r(C)p.r(U)p.r(C)p.m(C)p.r(A)p.r(C)p.r(A)p.r(G)p.m(U)p.r(A)p.r(G)p.r(A)p.r(G)p.r(U)p.r(U)p.r(T)p.r(T)}$$$RNA1{StrandType:ss}|RNA2{StrandType:as}$	68%
